Earlier results on three molecules are cited in paper PMC7797289 (Drug Design, Development and Therapy, 2021).

What is called Ki is a dissociation constant, usually derived from enzyme kinetics or from competition with a known ligand.

The subject of one data set is breast cancer metastasis. Conditions: in vivo test.
Another data set concerns the target uPA. The note with it: read-out: Ki (inhibitory constant); uPA inhibitor.
Another data set relates to lung cancer. Conditions: lung cancer animal model.

As for `CCCNC(=O)[C@H]1O[C@@H]1C(=O)N[C@H](C(=O)N1CCC[C@H]1C(=O)O)[C@@H](C)CC` [CA-074], the breast cancer metastasis result in the data set with breast cancer metastasis is “reduced breast cancer metastasis”. Turning to `CN(C)C(=O)[C@H](Cc1ccccc1)NC(=O)[C@H]1O[C@@H]1C(=O)NCCc1ccccn1` [CLIK-148], in the data set with breast cancer metastasis, the breast cancer metastasis result was “reduced breast cancer metastasis”. Turning to `N=C(N)c1ccc(CNC(=O)[C@H](CO)NC(=O)[C@@H](CO)NS(=O)(=O)Cc2ccccc2)cc1` [CJ-463, benzylsulfonyl-D-Ser-Ser-4- amidinobenzylamide], the Ki at uPA was 20 nM. Also, the anti-tumor efficacy result with lung cancer is reported as “good anti-tumor efficacy”.
